Consider 7 compounds from patent publication US9487482B2, “3,4,5-trimethoxystyrylarylaminopropenones as potential anticancer agents” (Council of Scientific and Industrial Research, priority 2014, dated 2016).

pIC50: −log10 of the molar value.

For one test, the system named is tubulin. To be noted: by binding at colchicine binding site; Simoni et al., J. Med. Chem. 2008; cited from earlier work.
The next test has as its system MCF-7 cells. Nature of the test: In vitro cytotoxicity, MTT assay, MCF-7. In kind it is cell-based, human. To be noted: 48 h continuous drug exposure. How it is done: (§1) All cell lines used in this study were purchased from the American Type Culture Collection (ATCC, United States). A549, MCF-7, and HeLa were grown in Dulbecco's modified Eagle's medium (containing 10% FBS in a humidified atmosphere of 5% CO2 at 37° C.). HCT116 cells were cultured in Eagle's minimal essential medium (MEM) containing non-essential amino acids, 1 mM sodium pyruvate, […] bovine insulin, and 10% FBS. Cells were trypsinized when sub-confluent from T25 flasks/60 mm dishes and seeded in 96-well plates. The synthesized test compounds were evaluated for their in vitro antiproliferative in four different human cancer cell lines. A protocol of 48 h continuous drug exposure was used, and a MTT cell proliferation assay was used to estimate cell viability or growth. The cell lines were grown in their respective media containing 10% fetal bovine serum and were seeded into 96-well microtiter plates in 200 μL, aliquots at plating densities depending on the doubling time of individual cell lines. The microtiter plates were incubated at 37° C., 5% CO2, 95% air, and 100% relative humidity for 24 h prior to addition of experimental drugs. Aliquots of 2 μL, of the test compounds were added to the wells already containing 198 μL, of cells, resulting in the required final drug concentrations. For each compound, four concentrations (1, 10, 100, and 1000 μM) were evaluated, and each was done in triplicate wells. Plates were incubated further for 48 h, and the assay was terminated by the addition of 10 μL, of 5% MTT and incubated for 60 min at 37° C. Later, the plates were air-dried. Bound stain was subsequently eluted with 100 μL, of DMSO, and the absorbance was read on an multimode plate reader (Tecan M200) at a wavelength of 560 nm. Percent growth was calculated on a plate by plate basis for test wells relative to control wells. The above determinations were repeated thrice. The growth inhibitory effects of the compounds were analyzed by generating dose response curves as a plot of the percentage surviving cells versus compound concentration. The sensitivity of the cancer cells to the test compound was expressed in terms of IC50, a value defined as the concentration of compound that produced 50% reduction as compared to the control absorbance. (A. S. Kumar, M. A. Reddy, N. Jain, C. Kishor, T. R. Murthy, D. Ramesh, B. Supriya, A. Addlagatta, S. V. Kalivendi, B. Sreedhar. Eur. J. Med. Chem. 60 (2013) 305-24).
Background: Formazan colour is commonly taken as a measure of viable cells.

In the next test the test system is HeLa cells. Nature of the test: In vitro cytotoxicity, MTT assay, HeLa. In kind it is cell-based, human. Particulars: Homo sapiens, HeLa (cervical carcinoma), 48 h continuous drug exposure. The protocol: as §1
The test system of the next test is A549 cells. Nature of the test: In vitro cytotoxicity, MTT assay, A549. Type of test: cell-based, human. Particulars: Homo sapiens, A549 (non-small cell lung cancer), 48 h continuous drug exposure. The protocol:
as §1

A further test relates to HCT116 cells. Nature of the test: In vitro cytotoxicity, MTT assay, HCT116. Type of test: cell-based, human. Particulars: Homo sapiens, HCT-116, HCT116 (colon carcinoma), 48 h continuous drug exposure. How it is done: as §1
The subject of test [1] is A549, HeLa, MCF-7 and HCT116 cells. Briefly: In vitro cytotoxicity, MTT assay, summary over all four cancer cell lines. Type of test: cell-based. To be noted: Homo sapiens, range over the group of compounds and the four cell lines, read-out: IC50 value range towards all the cancer cell lines. How it is done:
as §1

[2] abbreviates: Homo sapiens, MCF7, 48 h, MCF-7 (breast cancer).

Consider `COc1cc(/C=C\c2ccc(OC)c(N)c2)cc(OC)c1` [S4 (Ca-4 amine), (Z)-5-(3,5-dimethoxystyryl)-2-methoxyaniline, reference compound], for which the “inhibited tubulin polymerization, compared with CA-4” value in the test on tubulin is “five times stronger than CA-4”. The IC50 (commonly the concentration that inhibits the measured activity by half) with MCF-7 cells (setting [2]) worked out at 4.07 µM; in the test with HeLa cells, 0.58 µM; with A549 cells, 1.78 µM; in the test on HCT116 cells, 1.62 µM.
As for `COc1ccc(/C=C\c2cc(OC)c(OC)c(OC)c2)cc1N/C=C\C(=O)c1ccc(OC)c([N+](=O)[O-])c1` [Compound 10t, (Z)-1-(4-methoxy-3-nitrophenyl)-3-((2-methoxy-5-((Z)-3,4,5-trimethoxystyryl)phenyl)amino)prop-2-en-1-one], in test [1], the pIC50 (as a rule, the negative decadic logarithm of the IC50, by convention in mol/L) was 5.33 to 6.96. In addition, the IC50 with MCF-7 cells (setting [2]) stood at 2 µM; with HeLa cells it was 0.21 µM; with A549 cells it was 0.77 µM; in the test with HCT116 cells, 1.29 µM.
In the case of `COc1cc(C=Cc2cc(OC)c(OC)c(OC)c2)cc(N/C=C\C(=O)c2c[nH]c3ccccc23)c1OC` [Compound 11v, (Z)-3-(2,3-dimethoxy-5-(3,4,5-trimethoxystyryl)phenylamino)-1-(1H-indol-3-yl)prop-2-en-1-one], the negative logarithm of the IC50 (pIC50) in test [1] was 5.24 to 6.92. For the same compound, the IC50 with MCF-7 cells (Homo sapiens, MCF7, MCF-7 (breast cancer)) is 3.02 µM; with HeLa cells, 0.67 µM; in the test on A549 cells it was 0.56 µM; in the test on HCT116 cells it was 1.48 µM.
As for `COc1cc(/C=C\c2cc(OC)c(OC)c(OC)c2)cc(N/C=C\C(=O)c2ccc(OC(F)(F)F)cc2)c1OC` [Compound 11o, (Z)-3-((2,3-dimethoxy-5-((Z)-3,4,5-trimethoxystyryl)phenyl)amino)-1-(4-(trifluoromethoxy)phenyl)prop-2-en-1-one], the negative-log IC50 (pIC50) in test [1] was 5.24 to 6.92. Besides, the IC50 in the test with MCF-7 cells (setting [2]) worked out at 5.7 µM; with MCF-7 cells (MCF-7 (breast cancer)), 5.75 µM; in the test on HeLa cells, 1.86 µM; in the test with A549 cells it was 0.21 µM; in the test on HCT116 cells, 7.08 µM.
On to `COc1ccc(/C=C\c2cc(OC)c(OC)c(OC)c2)c(N/C=C\C(=O)c2cc(OC)c(OC)c(OC)c2Br)c1O` [Compound 16y, (Z)-1-(2-bromo-3,4,5-trimethoxyphenyl)-3-((2-hydroxy-3-methoxy-6-((Z)-3,4,5-trimethoxystyryl)phenyl)amino)prop-2-en-1-one], for which the pIC50 in test [1] is 5.13 to 6.74. Besides, the IC50 in the test with MCF-7 cells (setting [2]) stood at 0.19 µM; in the test with HeLa cells, 1.78 µM; in the test with A549 cells, 7.08 µM; with HCT116 cells, 2.69 µM.
Regarding `COc1ccc(C(=O)/C=C\Nc2c(/C=C\c3cc(OC)c(OC)c(OC)c3)ccc(OC)c2O)cc1[N+](=O)[O-]` [Compound 16t, (Z)-3-((2-hydroxy-3-methoxy-6-((Z)-3,4,5-trimethoxystyryl)phenyl)amino)-1-(4-methoxy-3-nitrophenyl)prop-2-en-1-one], the pIC50 in test [1] is 5.13 to 6.74. For the same compound, the IC50 in the test with MCF-7 cells (setting [2]) was 0.6 µM; with HeLa cells, 1.66 µM; in the test on A549 cells it was 7.33 µM; with HCT116 cells, 3.98 µM.
Regarding `COc1ccc(C=Cc2cc(OC)c(OC)c(OC)c2)cc1N/C=C\C(=O)c1c[nH]c2ccccc12` [Compound 10v, (Z)-1-(1H-indol-3-yl)-3-(2-methoxy-5-(3,4,5-trimethoxystyryl)phenylamino)prop-2-en-1-one], the negative logarithm of the IC50 (pIC50) in test [1] was 5.33 to 6.96. Besides, the IC50 in the test on MCF-7 cells (setting [2]) amounted to 0.11 µM; in the test with HeLa cells, 0.53 µM; with A549 cells it was 0.17 µM; with HCT116 cells it was 0.33 µM.
